Eight molecules from patent publication EP0533241A2, “Substituted alkyl derivatives of piperazinylcamphorsulfonyl oxytocin antagonists” (MERCK & CO. INC., priority 1991, dated 1993) can be followed below.

Usually IC50 stands for the point on the concentration scale where inhibition reaches its midpoint. Higher therefore signals a need for much substance.

The target in this assay is T1, uterine OT receptors (Rattus norvegicus, UniProt P70536).
T1 sequence (P70536 1-388): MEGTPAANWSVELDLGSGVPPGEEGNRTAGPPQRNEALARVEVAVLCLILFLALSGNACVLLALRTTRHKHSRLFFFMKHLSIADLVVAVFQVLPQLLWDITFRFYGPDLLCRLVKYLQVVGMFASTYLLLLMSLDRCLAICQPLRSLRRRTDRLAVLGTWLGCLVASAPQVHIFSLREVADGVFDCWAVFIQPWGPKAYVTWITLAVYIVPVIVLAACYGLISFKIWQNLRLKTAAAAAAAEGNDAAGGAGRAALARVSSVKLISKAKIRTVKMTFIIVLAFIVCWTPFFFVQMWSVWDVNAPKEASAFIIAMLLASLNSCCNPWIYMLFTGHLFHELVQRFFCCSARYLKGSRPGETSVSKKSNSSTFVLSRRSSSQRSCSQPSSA
As to the kind of experiment: [3H]Oxytocin radioligand binding competition assay, crude membrane preparation of uteri from DES-treated rats. The settings on record: for IC50: 1 nM [3H]OT, 60 minutes, 22 °C, rat uterine membranes.

Each structure is given as a SMILES string.

Method: The high affinity binding of [^3H] Oxytocin (OT)([tyrosyl, 3,5-[^3H]OT; 30-60 Ci/mmol; New England Nuclear. Boston, MA) to uterine OT receptors was based on an assay*using a crude membrane preparation of uteri taken from diethylstilbestrol dipropionate (DES)-treated (0.3 mg/kg, ip; 18-24) rats. Competition studies were conducted at equilibrium (60 minutes; 22 ° C) using 1 NM[^3H]OT in the following assay buffer: 50 mM Tris-HCI, 5 mM MgCl2, and 0.1% BSA, pH 7.4. Nonspecific binding (10% of the total binding) was determined using 1µM unlabeled OT and the binding reaction was terminated by filtration through glass fiber filters using a cell harvester (model 7019, Skatron, Inc., Sterling, VA).

As to `Cc1ccccc1N1CCN(S(=O)(=O)CC23CCC(CC2NC(=O)C(CCS(C)(=O)=O)NC(=O)Cc2c[nH]cn2)C3(C)C)CC1` (centres unmarked) [Example 37], the IC50 is 1.2 nM.

On to `CCOC(=O)CN1CCCC(C(=O)NC(C)CC2(O)CC3CCC2(CS(=O)(=O)N2CCN(c4ccccc4C)CC2)C3(C)C)C1` (centres unmarked) [Example 57], for which the “inhibition at 100 nM” value (at 100 nM) is 66% inhibition at 100 nM.

The molecule `COC(=O)C1CC2CCC1(CS(=O)(=O)N1CCN(c3ccccc3C)CC1)C2(C)C` (stereo not drawn) [Example 23, 1-((7,7-DIMETHYL-2-ENDO-METHOXYCARBONYL-BICYCLO (2.2.1)HEPTAN-1-YL)METHANESULFONYL)-4-(2-METHYLPHENYL)PIPERAZINE] displayed an IC50 of 120 nM.

Consider `Cc1ccccc1N1CCN(S(=O)(=O)CC23CCC(CC2N(C)C(=O)C(CCS(C)(=O)=O)N(C)C)C3(C)C)CC1` (centres unmarked) [Example 42], for which the IC50 came to 9.2 nM.

Turning to `Cc1ccccc1N1CCN(S(=O)(=O)CC23CCC(CC2C(=O)O)C3(C)C)CC1` (centres unmarked) [Example 24], the IC50 amounted to 260 nM.

As for `CC(=O)NC(CC=C1CC2CCC1(CS(=O)(=O)N1CCN(c3ccccc3C)CC1)C2(C)C)C(=O)O` (centres unmarked) [Example 29, 1-((7,7-DIMETHYL-2-(3-ACETAMIDO-3-CARBOXY) PROPYLIDINE-BICYCLO(2.2.1)HEPTAN-1-YL) METHANESULFONYL)-4-(2-METHYLPHENYL)PIPERAZINE], the inhibition at 1 µM (read-out: inhibition at 1,000 nM) worked out at 78%.

`Cc1ccccc1N1CCN(S(=O)(=O)CC23CCC(CC2N(C)C(=O)C(N)CCS(C)(=O)=O)C3(C)C)CC1` (centres unmarked) [Example 41] returned an IC50 of 6.3 nM.

Molecule `Cc1ccccc1N1CCN(S(=O)(=O)CC23CCC(CC2NC(=O)C(CCS(C)(=O)=O)N(C)C)C3(C)C)CC1` (centres unmarked) [Example 38] displayed an IC50 of 5.4 nM.
